Values of other authors, collected in patent US20060246141A1, “Nanoparticulate lipase inhibitor formulations” (Elan Pharma International, Limited, priority 2005, published 2006).
Read-outs that look alike come from different tables or passages of the source.

Tests used:
[1] = physiological pH range
[2] = system: gastric and pancreatic lipases; details: recommended therapeutic dose of 120 mg three times a day

Solubility (in chloroform): freely soluble | Solubility (in methanol and ethanol): very soluble | Solubility (in water): practically insoluble | pKa [1]: no pKa within the physiological pH range
Compound: CCCCCCCCCCCC(CC1OC(=O)[C@H]1CCCCCC)OC(=O)C(CC(C)C)NC=O (stereo in doubt) [Orlistat, (S)-2-formylamino-4-methyl-pentanoic acid (S)-1-[[(2S, 3S)-3-hexyl-4-oxo-2-oxetanyl]methyl]-dodecyl ester]
Inhibition of dietary fat absorption [2]: approximately 30%
